“Also recorded” adds a separate entry of the source. Where two headings read alike, the source gives them in different places.

Experiment [1] has as its system MDA-MB-231. To be noted: 16 mg/kg, daily oral administration; References 1 and 2; cited from earlier work.
Experiment [2] has as its system CD19-negative NALM6. Nature of the experiment: Cell death induction by tolinapant in presence of cytokine produced from CAR-T. In kind it is cell-based. The following applies: cytokine produced from CAR-T present with tolinapant; antigen-negative as well as antigen-expressing tumor cells. The source says: It has also been confirmed that when CAR-T used in this Example was reacted with a target CAR antigen-expressing tumor cell (e.g., CD19-positive NALM6) in vitro, cytokine (e.g., TNF-α) was produced. […] This non-contact apoptosis induction to tumor cells is expected to exert an antitumor effect on tumor cells in which antigen escape has occurred or tumor cells metastasized to a site to which modified immune cells cannot make access.

Experiment [3] deals with A375. Nature of the experiment: Combination of tolinapant and NY-ESO-1 TCR-T in A375 subcutaneous tumor-bearing NOG mice. In kind it is in vivo, mouse. As to the method:
Each mouse was identified with a number attached to the tail of the mouse.
The evaluation period was set to 2 weeks, and grouping and pharmacological evaluation were performed based on the results of tumor diameter measurement using a caliper. The tumor diameter and body weight were measured twice a week.
Using trypsin-EDTA-PBS(−), the cultured cells were detached and collected and then centrifuged (4° C., 1200 rpm, 5 min). After removing the supernatant, D-PBS (−) was added and the cells were resuspended and washed by centrifugation in the same manner as above. This washing operation was further repeated twice. After a portion of the cell suspension was taken and the number of viable cells was counted using AOPI Staining Solution, a cell suspension at 1×10^7 cells/mL was prepared using D-PBS(−), After the preparation, the cell suspension was stored in ice until transplantation. […]
On the eighth day after the transplantation, the long diameter and the short diameter were measured and the tumor volume was calculated. […]
The tumor diameter was determined by measuring the short diameter and the long diameter using an electronic caliper (produced by Mitutoyo Corporation). After tumor cell transplantation, the tumor diameter was measured twice a week.
Based on the measurement results of the tumor diameter, the tumor volume (TV: tumor volume) was calculated using the following formula: […]

Experiment [4] deals with NALM6-luc2. The protocol: 6-week-old NOG mice produced by In-Vivo Science Co., Ltd., were obtained, and tumor cells were intravenously transplanted into the mice at 7 weeks of age to prepare tumor-bearing mice. The day before the transplantation, busulfex (BSF) was intraperitoneally administered at 20 mg/kg. During the breeding period, the mice were housed with 5 mice per group and bred in a P2A breeding room set to a temperature of 24° C. (actual measurement: 19.7 to 25.0° C.), humidity of 50% (actual measurement: 38.6 to 58.5%), and illumination of 12 hours/day (8:00 a.m. to 8:00 p.m.). During the breeding period, the mice were allowed free access to radiation-sterilized solid feed for mice (CL-2, produced by Clea Japan, Inc.) and autoclave-sterilized tap water placed in a water bottle.
CD19 CAR-T cells were intravenously administered once according to the group constitution on the same day as grouping. The IAP antagonist also started to be administered on the same day as grouping and was orally or intravenously administered according to the group constitution table.
The evaluation period was set to 3 to 4 weeks. Grouping and pharmacological evaluation were performed based on tumor luminescence values as determined by IVIS (trademark). Luminescence value measurement by IVIS (trademark) and body weight measurement were performed twice a week.
For NALM6-luc2, after resuspension, a portion of the cell suspension was taken, dead cells were stained with AOPI Staining Solution, and the number of viable cells was counted with a blood cell measuring device. A cell suspension was prepared by diluting the cells with RPMI 1640 to 1×10^7 cells/mL, based on the measurement results of viable cell count of the cells. Similarly, in a low tumor volume system, a cell suspension was prepared by diluting the cells with serum-free RPMI 1640 to achieve a concentration of 1×10^6 cells/mL.
After the mice were retained using a retainer, a cell suspension was transplanted at 1×10^6 cells/0.1 mL/body using a 27G Myjector (1 mL, produced by Terumo Corporation) to the tail vein of each mouse with no anesthesia. In the low tumor volume system, a cell suspension at 1×10^5 cells/0.1 mL/body was transplanted.
In accordance with the dosing regimen shown in FIG. 6, NALM6-luc2 was transplanted the day after treating the […] with busulfex. On the third day after the transplantation, luminescence values were measured using the IVIS (trademark) Lumina X5 In-Vivo imaging system (produced by PerkinElmer, Co., Ltd.). Using the luminous values as an indicator and using SAS software R9.4 (produced by SAS Institute Japan), the mice were divided into groups of 5 mice each by the stratified random sampling method.
1) A suspension of CD19 CAR-T cells was administered to the tail vein at the time of grouping. For the dosage, the number of viable CD19 CAR-T cells was counted and a cell suspension prepared according to the group constitution table was administered once at 0.1 mL/body. For the administration, a Myjector syringe with a 27G needle was used.
5) Birinapant was intraperitoneally administered at a dose of 10 mL/kg according to the group composition table. Tolinapant, LCL161, and AT406 were orally administered at a dose of 10 mL/kg according to the group composition table using a sonde in the same manner. For intraperitoneal administration, an insulin syringe with a 26G needle was used in place of the sonde. For oral administration, a needle was used in place of the sonde to administer each drug.
VivoGlo™-luciferin (produced by Promega) was dissolved in D-PBS(−) to achieve a concentration of 30 mg/mL and then cryopreserved at −20° C. under light-shielded conditions. On the day of measurement, dissolved VivoGlo™-luciferin was diluted with an equivalent amount of D-PBS(−) and stored at room temperature under light-shielded conditions until use for testing. Based on the body weight measured in advance, VivoGlo™-luciferin was intraperitoneally administered in a volume of 10 mL/kg.

Experiment [5] concerns NALM6-luc2. Nature of the experiment: Combination of tolinapant and CD19 CAR-T against a low volume of tumor (NALM6-luc2, NOG mice). In kind it is in vivo, mouse. The text has this: For the measurement, IVIS (trademark) Lumina X5 was used.
Setting [6] is: combined use with CD19 CAR-T, AUC up to day 14.
[7] abbreviates: combined use with CD19 CAR-T, AUC up to day 17.
Setting [8] is: combined use with CD19 CAR-T, maximum tumor volume (luminescence value).
The mark [9] stands for this setting: tolinapant 16 mg/kg qd po + CD19 CAR-T 1×10^5 cells/body iv.

As for `C[C@@H]1CN(CC(=O)N2CC(C)(C)c3nc(CO)c(Cc4ccc(F)cc4)cc32)[C@@H](CN2CCOC[C@H]2C)CN1` [Tolinapant, 1-[6-[(4-fluorophenyl)methyl]-5-(hydroxymethyl)-3,3-dimethyl-2H-pyrrolo[3,2-b]pyridin-1-yl]-2-[(2R,5R)-5-methyl-2-[[(3R)-3-methylmorpholin-4-yl]methyl]piperazin-1-yl]ethanone], in experiment [1], the “efficacy of tolinapant in MDA-MB-231 xenograft mice” value was “exhibited efficacy”. Further, the “induction of cell death (e.g., apoptosis)” value in experiment [2] is given as “cell death (e.g., apoptosis) is induced to antigen-negative tumor cells (e.g., CD19-negative NALM6) as well as antigen-expressing cells”. The “tumor volume on day 15, combination versus either agent alone” value in experiment [3] (tolinapant 16 mg/kg po + NY-ESO-1 TCR-T 3×10^6 cells/body iv, day 15) is listed as “a significant difference was observed”. Besides, the “tumor regression with NY-ESO-1 TCR-T and tolinapant both administered” value in experiment [3] (tolinapant 16 mg/kg po + NY-ESO-1 TCR-T iv, compared with NY-ESO-1 TCR-T alone) is “a higher degree of tumor regression was confirmed; also recorded: synergistic effects based on the combined use were shown; also recorded: significant, highly reproducible results”. The “maximum effect / drug efficacy-enhancement effect of combination with tolinapant compared with other IAP antagonists” value in experiment [4] (combination with CD19 CAR-T, versus AT406, LCL161, birinapant) is “the combination with tolinapant was superior; also recorded: a higher drug efficacy-enhancement effect than combinations with any other IAP antagonist”. Further, in experiment [4] (setting [6]), the “t-Test using AUC as an indicator (day 14), Tolinapant versus AT406” value is <0.05; the “t-Test using AUC as an indicator (day 14), Tolinapant versus Birinapant” value is given as <0.05; the “t-Test using AUC as an indicator (day 14), Tolinapant versus LCL161” value is on record as <0.05. In experiment [4] (setting [7]), the “t-Test using AUC as an indicator (day 17), Tolinapant versus AT406” value was <0.05; the “t-Test using AUC as an indicator (day 17), Tolinapant versus Birinapant” value was <0.05; the “t-Test using AUC as an indicator (day 17), Tolinapant versus LCL161” value is listed as <0.05. The “t-Test using AUC as an indicator (day 17), Tolinapant versus AT406” value in experiment [4] (combined use with CD19 CAR-T, AUC up to day 17, listed as tolinapant) is given as “a significance due to combined use of tolinapant could be observed”. Moreover, in experiment [4] (setting [8]), the “t-Test using the maximum tumor volume as an indicator, Tolinapant versus AT406” value is <0.05; the “t-Test using the maximum tumor volume as an indicator, Tolinapant versus Birinapant” value is reported as <0.05; the “t-Test using the maximum tumor volume as an indicator, Tolinapant versus LCL161” value is recorded as <0.05. In addition, the “t-Test using the maximum tumor volume as an indicator, Tolinapant versus AT406” value in experiment [4] (combined use with CD19 CAR-T, maximum tumor volume (luminescence value), listed as tolinapant) is recorded as “a significant difference”. In addition, the “effect of tolinapant + 1×10^5 cells CD19 CAR-T compared with 1×10^6 cells CD19 CAR-T alone” value in experiment [4] (setting [9]) is “an effect equivalent to the effect achieved by using 1×10^6 cells of CD19 CAR-T alone was observed on day 14; also recorded: better tumor regression was observed on day 14 and thereafter”. Moreover, in experiment [4] (tolinapant 16 mg/kg qd po + CD19 CAR-T 1×10^5 cells/body iv, versus tolinapant only or CD19 CAR-T only), the “combination effect of tolinapant and CD19 CAR-T (tumor luminescence value)” value is “significantly improved effect (p<0.05); also recorded: a significant combination effect was observed on day 7 and thereafter; also recorded: significant, highly reproducible results”. Besides, in experiment [4] (tolinapant alone, 16 mg/kg, daily oral administration), the “efficacy of tolinapant administered alone” value was “showed no efficacy; also recorded: no effect”. The “reduction in the number of CAR-T cells achieved by the combination” value in experiment [5] (2×10^4 cells + tolinapant versus 1×10^6 cells alone, suggested possibility) is “at least 50 fold”. Besides, in experiment [5] (tolinapant 16 mg/kg qd po + CD19 CAR-T), the “combination effect of tolinapant and CD19 CAR-T on a low volume of tumor” value was “a strong combination effect was observed”. Further, the “effect of tolinapant + 1×10^5 cells CD19 CAR-T compared with 1×10^6 cells CD19 CAR-T alone” value in experiment [5] (setting [9]) is listed as “an effect equivalent to the effect achieved by using 1×10^6 cells of CD19 CAR-T alone was observed on day 17”. Also, the “effect of tolinapant + 2×10^4 cells CD19 CAR-T compared with 1×10^6 cells CD19 CAR-T alone” value in experiment [5] (tolinapant 16 mg/kg qd po + CD19 CAR-T 2×10^4 cells/body iv) is listed as “an effect equivalent to the effect achieved by using 1×10^6 cells of CD19 CAR-T alone was observed on day 21”.

Values taken from patent US20250127813A1, “COMBINATION DRUG” (OTSUKA PHARMACEUTICAL CO., LTD., priority 2021, published 2025).
